Experimental data: patent publication US12582614B2, “Composition for preventing, alleviating or treating sarcopenia, containing D-ribo-2-hexulose as active ingredient” (KYUNGPOOK NATIONAL UNIVERSITY INDUSTRY-ACADEMIC COOPERATION …, priority 2021, dated 2026)

Key:
Assay type in all cases: in vivo, C57BL/6J male mice
aged mice [1] = test: Fat and muscle weight
aged mice [2] = test: Whole-body tension (digital force gauge); details: DRH group; decrease in NC vs YC
Procedure: The whole-body tension was measured and evaluated using a digital force gauge (Korea, JM Instruments Corp., FGJN.FGP Series). For each mouse, the whole-body tension was measured and evaluated at intervals of 5 days. In order to evaluate the whole-body tension on week 10 of the experiment, the average value of the maximum whole-body tension was calculated as force per body weight (Ng^−1 BW).

gastrocnemius tissue = test: H&E and Sirius red staining of gastrocnemius tissue
Procedure: (§1) For morphological tissue observation, parts of liver and muscle tissues were fixed with a 10% formaldehyde solution for 24 hours. Thereafter, the samples were subjected to replacement with the same solution twice, dehydrated twice with ethanol, embedded in paraffin, and treated with poly-L-lysine to prepare tissue slices having a thickness of 5 μm. For morphological analysis, among the prepared tissue sections, the liver tissue was stained with H&E and MT, and the muscle tissue was stained with H&E and Sirius red, and magnified 200 times under an optical microscope. For IHC analysis, the muscle tissue was stained with IGF-1 and Myostatin, and then observed under an optical microscope.

TNF-α = test: Western blotting of TNF-α expression; details: DRH group vs NC group
Procedure: The amount of cytoplasmic and membrane proteins was quantified according to the Bradford method. Thereafter, a protein load was applied onto a 10% SDS-polyacrylamide gel, transferred to a Tris-glycine electrophoresis buffer for an hour, and then electrophoresed. The positions of the bands were confirmed using a Ponceau solution, blocking (5% skim milk in TBS/0.1% Tween-20) was performed at room temperature for 60 minutes in order to reduce non-specific reactions to the membrane. Then, the samples were reacted with a primary antibody overnight at 4° C. […]

[3] = test system: MyoD, Myf5, Myf6, Myogenin, Mef2, MuRF1, Atrogin1, FoxO3; test: Real-time PCR of muscle strength-related genes
Procedure: After total RNA was isolated, total complementary DNA (cDNA) was synthesized. For real-time PCR analysis, template cDNA was diluted with RNAse-free water and used at a concentration of 25 ng/μL. Then, gene expression was analyzed using a QuantitTeck SYBR Green PCR kit (QIAGEN, Germany).
Each of the reaction solutions consisted of 10 μL of SYBR Green, 2 μL of a template, and 200 μM primers. RNAse-free water was added to a final volume of 20 μL, and reacted at 94° C. for 15 seconds, and then 58° C. and 72° C. for 30 seconds. The reaction solution was reacted 40 times at 65° C. for 30 seconds at 15 seconds per cycle. In this case, by monitoring the fluorescence signal for each cycle and analyzing the resulting threshold cycle (Ct), mRNA expression between the respective experimental groups was quantitatively analyzed using a CFX96 Real-time system (Bio-Rad, USA). GAPDH (Gene ID 14433) was used as an internal transcriptional marker, and the gene primers used for amplification were as follows: MyoD (myoblast determination protein 1, Gene ID 17927), Myf5 (Gene ID 17877), Myf6 (Gene ID 17878), Myogenin (Gene ID 17928), Mef2 (Gene ID 17260), MuRF1 (Gene ID […]), Atrogin1 (Gene ID 67731), FoxO3 (Gene ID 56484), CerS1 (Gene ID 93898(3)1), CIDEC1 (Gene ID 12700), SCD1 (Gene ID 20249), Adipsin (complement factor D, Gene ID 11537), Adiponectin (Gene ID 11450), Haptoglobin (Gene ID 15439), and Neuronatin (Gene ID 18111).

[4] = test system: insulin-like growth factor 1 (IGF-1); test: IHC analysis of muscle tissue, IGF-1; details: reduction in NC vs YC
Procedure: as §1

[5] = decrease in NC vs YC, DRH vs NC significant

SMILES: O=C(CO)[C@H](O)[C@H](O)[C@H](O)CO [DRH, D-ribo-2-hexulose]
- ratio of the total weight of muscle tissue to the total weight of adipose tissue (aged mice [1]; DRH group vs NC group): significantly increased
- total weight of muscle tissue (aged mice [1]; DRH group vs NC group): no significant difference
- fat weight (aged mice [1]; DRH supplementation): reduced
- whole-body tension (aged mice [2]): dramatically compensated for the decrease
- progression of fibrosis (Sirius red staining) (gastrocnemius tissue; DRH group): reduced to that of the YC group
- size of muscle fibers (H&E staining) (gastrocnemius tissue; reduction observed in NC group): improved
- TNF-α expression (TNF-α): significantly decreased
- expression of Atrogin1 gene ([3]; all three groups (YC, NC, DRH)): no significant difference
- expression of FoxO3 gene ([3]; all three groups (YC, NC, DRH)): no significant difference
- expression of MuRF1 gene ([3]; all three groups (YC, NC, DRH)): no significant difference
- expression of MyoD gene ([3]; all three groups (YC, NC, DRH)): no significant difference
- expression of Myf5 gene [3, 5]: partially improved
- expression of Myf6 gene [3, 5]: partially improved
- expression of Myogenin gene [3, 5]: partially improved
- expression level of IGF-1 [4]: improved this reduction
